Among the data in US12599672B2, “KRAS proteolysis targeting chimeras” (PAQ Therapeutics Inc., priority 2023, dated 2026) are DC50 values, retold here.

SMILES strings stand for the structures.

What all share (format): cell-based
The target in one assay is T1, KRAS G12V (Homo sapiens, UniProt P01116, G12V).
T1 construct: SW620-KRAS (G12V)-HiBit-KI cell (Pharmaron); host or cells: SW620-KRAS (G12V)-HiBit-KI cells (HiBiT knock-in at the endogenous KRAS locus)
Nature of the assay: KRAS G12V HiBit assay. The settings on record: SW620-KRAS (G12V)-HiBit-KI cells, compound treatment for 24 hours, class symbols. An outline of the steps:
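HiBiT-tagged KRAS G12V cells treated 24 h with compound in a 3-fold, 10-point series (0.3 mM DMSO stock); lytic HiBiT reagent with LgBiT added after 15 min room-temperature equilibration. Degradation calculated against 0.1% DMSO high control.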
Background: HiBiT is a short tag that completes a luciferase, so light tracks the accessible tagged protein.

In a further assay the target is T2, KRAS (Homo sapiens, UniProt P01116).
T2 construct: endogenous in cells; host or cells: KE39 (KRAS amplified) cells
T2 sequence (P01116 1-188 isoform P01116-2): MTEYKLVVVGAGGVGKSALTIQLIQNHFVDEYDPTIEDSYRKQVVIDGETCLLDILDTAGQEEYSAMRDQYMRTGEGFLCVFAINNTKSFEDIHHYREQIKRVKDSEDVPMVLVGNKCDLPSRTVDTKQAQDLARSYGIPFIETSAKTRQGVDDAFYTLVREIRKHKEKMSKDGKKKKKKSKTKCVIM
Nature of the assay: KRASamp MSD assay. Conditions: KE39 (KRAS amplified) cells, treated with test compounds for 24 hr, MSD readout of KRAS degradation. An outline of the steps:
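KRAS-amplified KE39 cells treated with compound for 24 hr, then lysed in RIPA buffer with protease/phosphatase inhibitors. KRAS protein measured by MSD sandwich immunoassay against a recombinant WT KRAS standard curve; DC50 derived from curve fitting of degradation.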

A further assay has as its target T3, KRAS G12D (Homo sapiens, UniProt P01116, G12D).
T3 construct: AsPc-1-KRAS (G12D)-HiBit-KI cell (Pharmaron); host or cells: AsPc-1-KRAS (G12D)-HiBit-KI cells (HiBiT knock-in at the endogenous KRAS locus)
The assay can be described thus: KRAS G12D HiBit assay. The settings on record: AsPc-1-KRAS (G12D)-HiBit-KI cell, compound treatment for 24 hours, absolute DC50. A digest of the protocol: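 Cells were treated for 24 h with compounds in a 3-fold, 10-point dilution series from a 0.3 mM DMSO stock, then equilibrated 15 min at room temperature. KRAS G12D HiBiT levels were read by luminescence after lytic Nano-Glo HiBiT reagent with LgBiT; inhibition calculated relative to 0.1% DMSO high control.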

Setting [1] is: numeric bounds given in place of class symbols.

T1 sequence (P01116 1-188 isoform P01116-2 G12V): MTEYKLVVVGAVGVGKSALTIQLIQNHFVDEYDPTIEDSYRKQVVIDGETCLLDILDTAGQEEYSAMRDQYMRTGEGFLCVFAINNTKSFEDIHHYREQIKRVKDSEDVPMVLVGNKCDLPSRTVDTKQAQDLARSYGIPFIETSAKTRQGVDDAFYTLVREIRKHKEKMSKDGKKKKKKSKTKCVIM
T3 sequence (P01116 1-188 isoform P01116-2 G12D): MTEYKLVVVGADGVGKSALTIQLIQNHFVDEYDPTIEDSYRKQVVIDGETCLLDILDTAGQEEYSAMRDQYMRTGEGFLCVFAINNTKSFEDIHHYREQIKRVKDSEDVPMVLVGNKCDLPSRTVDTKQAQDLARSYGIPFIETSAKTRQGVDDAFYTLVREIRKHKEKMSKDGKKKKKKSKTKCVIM

Consider `C#Cc1c(F)ccc2cc(O)cc(-c3ncc4c(N5CCC[C@@](C)(O)C5)nc(OC[C@@]56CCCN5[C@H](COC(=O)N5CC(N7CCC(N8CCC(c9ccc%10c(c9)n(C)c(=O)n%10C9CCC(=O)NC9=O)CC8)CC7)C5)CC6)nc4c3F)c12` (stereo partly drawn) [Compound 322, ((3S,7aS)-7a-(((7-(8-ethynyl-7-fluoro-3-hydroxynaphthalen-1-yl)-8-fluoro-4-((R)-3-hydroxy-3-methylpiperidin-1-yl)pyrido[4,3-d]pyrimidin-2-yl)oxy)methyl)hexahydro-1H-pyrrolizin-3-yl)methyl 3-(4-(1-(2,6-dioxopiperidin-3-yl)-3-methyl-2-oxo-2,3-dihydro-1H-benzo[d]imidazol-5-yl)-[1,4′-bipiperidin]-1′-yl)azetidine-1-carboxylate], for which the figures for the DC50 at KRAS G12V, at KRAS and on KRAS G12D (setting [1]) were above 100 nM, at least 10 nM and above 100 nM, respectively.
Consider `C#Cc1c(F)ccc2cc(O)cc(-c3ncc4c(N5CCC[C@@](C)(O)C5)nc(OCC5(CN6CCC(N7CCC(c8cccc9c(C%10CCC(=O)NC%10=O)nn(C)c89)CC7)CC6)CC5)nc4c3F)c12` (stereo partly drawn) [Compound 77], for which the DC50 is below 10 nM at KRAS G12V, 1 to 10 nM on KRAS and below 100 nM on KRAS G12D (class symbols).
As for `CCc1c(F)ccc2cc(O)cc(-c3ccc4c(N5CCC[C@@](C)(O)C5)nc(OC[C@@]56CCCN5[C@H](COC(=O)N5CCC7(CC5)CC(N5CCC(c8ccc9c(c8)n(C)c(=O)n9C8CCC(=O)NC8=O)CC5)C7)CC6)nc4c3F)c12` (stereo partly drawn) [Compound 355, ((3S,7aS)-7a-(((7-(8-ethyl-7-fluoro-3-hydroxynaphthalen-1-yl)-8-fluoro-4-((R)-3-hydroxy-3-methylpiperidin-1-yl)quinazolin-2-yl)oxy)methyl)hexahydro-1H-pyrrolizin-3-yl)methyl 2-(4-(1-(2,6-dioxopiperidin-3-yl)-3-methyl-2-oxo-2,3-dihydro-1H-benzo[d]imidazol-5-yl)piperidin-1-yl)-7-azaspiro[3.5]nonane-7-carboxylate], the DC50 on KRAS G12V is below 10 nM; on KRAS it was below 1 nM; at KRAS G12D (class symbols) it was below 100 nM.
Taken in the same sequence, the figures for `CCc1c(F)ccc2cc(O)cc(-c3ncc4c(N5CCCCC5)nc(OC[C@@]56CCCN5[C@H](CN5CCC(CN7CCC(c8ccc9c(c8)n(C)c(=O)n9C8CCC(=O)NC8=O)CC7)CC5)CC6)nc4c3F)c12` (stereo partly drawn) [Compound 379, 3-(5-(1-((1-(((3S,7aS)-7a-(((7-(8-ethyl-7-fluoro-3-hydroxynaphthalen-1-yl)-8-fluoro-4-(piperidin-1-yl)pyrido[4,3-d]pyrimidin-2-yl)oxy)methyl)hexahydro-1H-pyrrolizin-3-yl)methyl)piperidin-4-yl)methyl)piperidin-4-yl)-3-methyl-2-oxo-2,3-dihydro-1H-benzo[d]imidazol-1-yl)piperidine-2,6-dione] were below 10 nM, below 1 nM and below 100 nM.
With `CCc1c(F)ccc2cc(O)cc(-c3ncc4c(N5CCC[C@@](C)(O)C5)nc(OC[C@@]56CCCN5[C@@H](COC(=O)N5CCC(CCOc7ccc8c(c7)n(C)c(=O)n8C7CCC(=O)NC7=O)CC5)CC6)nc4c3F)c12` (stereo partly drawn) [Compound 315, ((3R,7aS)-7a-(((7-(8-ethyl-7-fluoro-3-hydroxynaphthalen-1-yl)-8-fluoro-4-((R)-3-hydroxy-3-methylpiperidin-1-yl)pyrido[4,3-d]pyrimidin-2-yl)oxy)methyl)hexahydro-1H-pyrrolizin-3-yl)methyl 4-(2-((1-(2,6-dioxopiperidin-3-yl)-3-methyl-2-oxo-2,3-dihydro-1H-benzo[d]imidazol-5-yl)oxy)ethyl)piperidine-1-carboxylate], the DC50 on KRAS G12V was above 100 nM; at KRAS, at least 10 nM; on KRAS G12D (setting [1]) it was above 100 nM.
As for `C#Cc1c(F)ccc2cc(O)cc(-c3ncc4c(N5CCC[C@@](C)(O)C5)nc(OC[C@@]56CCCN5[C@H](COC(=O)N5CCC(CC#Cc7ccc8c(c7)n(C)c(=O)n8C7CCC(=O)NC7=O)CC5)CC6)nc4c3F)c12` (stereo partly drawn) [Compound 375, ((3S,7aS)-7a-(((7-(8-ethynyl-7-fluoro-3-hydroxynaphthalen-1-yl)-8-fluoro-4-((R)-3-hydroxy-3-methylpiperidin-1-yl)pyrido[4,3-d]pyrimidin-2-yl)oxy)methyl)hexahydro-1H-pyrrolizin-3-yl)methyl 4-(3-(1-(2,6-dioxopiperidin-3-yl)-3-methyl-2-oxo-2,3-dihydro-1H-benzo[d]imidazol-5-yl)prop-2-yn-1-yl)piperidine-1-carboxylate], the figures for the DC50 at KRAS G12V, on KRAS and at KRAS G12D (class symbols) were below 10 nM, 1 to 10 nM and below 100 nM, respectively.
The like results for `C#Cc1c(F)ccc2cc(O)cc(-c3ncc4c(N5CCC[C@@](C)(O)C5)nc(OC[C@@]56CCCN5[C@H](COC(=O)N5CCC(N7CC(N8CCC(c9ccc%10c(c9)n(C)c(=O)n%10C9CCC(=O)NC9=O)CC8)C7)CC5)CC6)nc4c3F)c12` (stereo partly drawn) [Compound 414, ((3S,7aS)-7a-(((7-(8-ethynyl-7-fluoro-3-hydroxynaphthalen-1-yl)-8-fluoro-4-((R)-3-hydroxy-3-methylpiperidin-1-yl)pyrido[4,3-d]pyrimidin-2-yl)oxy)methyl)hexahydro-1H-pyrrolizin-3-yl)methyl 4-(3-(4-(1-(2,6-dioxopiperidin-3-yl)-3-methyl-2-oxo-2,3-dihydro-1H-benzo[d]imidazol-5-yl)piperidin-1-yl)azetidin-1-yl)piperidine-1-carboxylate] were, in that order, 10 to 100 nM, at least 10 nM and below 100 nM.
Taken in the same sequence, the figures for `Cn1c(=O)n(C2CCC(=O)NC2=O)c2ccc(C3CCN(CC4(F)CCN(C(=O)OC[C@@H]5CC[C@]6(COc7nc(N8CCC[C@@](C)(O)C8)c8cnc(-c9cc(O)cc%10ccc(F)cc9%10)c(F)c8n7)CCCN56)CC4)CC3)cc21` (stereo partly drawn) [Compound 446, ((3S,7aS)-7a-(((8-fluoro-7-(7-fluoro-3-hydroxynaphthalen-1-yl)-4-((R)-3-hydroxy-3-methylpiperidin-1-yl)pyrido[4,3-d]pyrimidin-2-yl)oxy)methyl)hexahydro-1H-pyrrolizin-3-yl)methyl 4-((4-(1-(2,6-dioxopiperidin-3-yl)-3-methyl-2-oxo-2,3-dihydro-1H-benzo[d]imidazol-5-yl)piperidin-1-yl)methyl)-4-fluoropiperidine-1-carboxylate] were below 10 nM, below 1 nM and below 100 nM.
For `C#Cc1c(F)ccc2cc(O)cc(-c3ncc4c(N5CCC[C@@](C)(O)C5)nc(OC[C@@]56CCCN5[C@H](COC(=O)NC5CCN(C7CCN(c8ccc9c(c8)n(C)c(=O)n9C8CCC(=O)NC8=O)CC7)CC5)CC6)nc4c3F)c12` (stereo partly drawn) [Compound 324, ((3S,7aS)-7a-(((7-(8-ethynyl-7-fluoro-3-hydroxynaphthalen-1-yl)-8-fluoro-4-((R)-3-hydroxy-3-methylpiperidin-1-yl)pyrido[4,3-d]pyrimidin-2-yl)oxy)methyl)hexahydro-1H-pyrrolizin-3-yl)methyl (1′-(1-(2,6-dioxopiperidin-3-yl)-3-methyl-2-oxo-2,3-dihydro-1H-benzo[d]imidazol-5-yl)-[1,4′-bipiperidin]-4-yl)carbamate], the DC50 on KRAS G12V is above 100 nM; on KRAS, at least 10 nM; at KRAS G12D (setting [1]), above 100 nM.
Take `C#Cc1cc(F)cc2cc(O)cc(-c3ncc4c(N5CCC[C@@](C)(O)C5)nc(OC[C@@]56CCCN5[C@H](COC(=O)N5CCC(CN7CCC(c8ccc9c(c8)n(C)c(=O)n9C8CCC(=O)NC8=O)CC7)CC5)CC6)nc4c3F)c12` (stereo partly drawn) [Compound 405, ((3S,7aS)-7a-(((7-(8-Ethynyl-6-fluoro-3-hydroxynaphthalen-1-yl)-8-fluoro-4-((R)-3-hydroxy-3-methylpiperidin-1-yl)pyrido[4,3-d]pyrimidin-2-yl)oxy)methyl)hexahydro-1H-pyrrolizin-3-yl)methyl 4-((4-(1-(2,6-dioxopiperidin-3-yl)-3-methyl-2-oxo-2,3-dihydro-1H-benzo[d]imidazole-5-yl)piperidin-1-yl)methyl) piperidine-1-carboxylate]: the DC50 was 10 to 100 nM at KRAS G12V, 1 to 10 nM on KRAS and below 100 nM on KRAS G12D (class symbols).
The like results for `CCc1c(F)ccc2cc(O)cc(-c3ncc4c(N5CCC[C@@](C)(O)C5)nc(OC[C@@]56CCCN5[C@H](COC(=O)N5CCC(CN7CCC(c8ccc9c(c8)n(C)c(=O)n9C8CCC(=O)NC8=O)CC7)C(F)(F)C5)CC6)nc4c3F)c12` (stereo partly drawn) [Compound 397, ((3S,7aS)-7a-(((7-(8-ethyl-7-fluoro-3-hydroxynaphthalen-1-yl)-8-fluoro-4-((R)-3-hydroxy-3-methylpiperidin-1-yl)pyrido[4,3-d]pyrimidin-2-yl)oxy)methyl)hexahydro-1H-pyrrolizin-3-yl)methyl 4-((4-(1-(2,6-dioxopiperidin-3-yl)-3-methyl-2-oxo-2,3-dihydro-1H-benzo[d]imidazol-5-yl)piperidin-1-yl)methyl)-3,3-difluoropiperidine-1-carboxylate] were, in that order, below 10 nM, below 1 nM and below 100 nM.
